According to PubChem BioAssay (NCI):
“And” between values parts separate entries of the source, which are not always exact repeats. Identical values can stand only once.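 Values below derive from 48-hour exposures of cells grown in 96-well plates, with endpoints linearly interpolated between the two concentrations bracketing the appropriate inhibition level. GI50 is the concentration that inhibits growth by half. At the TGI there is no net growth.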

What was measured:
Experiment in all cases: NCI-60 cell line screen, 48 h
SF-295 CNS = test system: SF-295 CNS
BT-549 breast = test system: BT-549 breast
MALME-3M melanoma = test system: MALME-3M melanoma
MDA-MB-435 = test system: MDA-MB-435
EKVX NSCLC = test system: EKVX NSCLC
COLO 205 colon = test system: COLO 205 colon
MOLT-4 leukemia = test system: MOLT-4 leukemia
SR leukemia = test system: SR leukemia
K-562 leukemia = test system: K-562 leukemia
MDA-MB-231 breast = test system: MDA-MB-231 breast

SMILES	GI50 (SF-295 CNS)	TGI (SF-295 CNS)	GI50 (BT-549 breast) [µM]	TGI (BT-549 breast) [µM]	GI50 (MALME-3M melanoma)	TGI (MALME-3M melanoma)	GI50 (MDA-MB-435) [µM]	TGI (MDA-MB-435) [µM]	GI50 (EKVX NSCLC)	TGI (EKVX NSCLC)	GI50 (COLO 205 colon) [µM]	TGI (COLO 205 colon) [µM]	GI50 (MOLT-4 leukemia)	TGI (MOLT-4 leukemia)	GI50 (SR leukemia) [µM]	TGI (SR leukemia) [µM]	GI50 (K-562 leukemia)	TGI (K-562 leukemia)	GI50 (MDA-MB-231 breast) [µM]	TGI (MDA-MB-231 breast) [µM]
Cc1cc(Nc2ccc(NC(=O)c3ccc(Nc4ccnc5ccccc45)cc3)cc2)nc(N)n1	4.81 µM	39.6 µM	2.25	5.74	2 µM	4.65 µM	2.93	> 100	2.95 µM	> 100 µM										
Cc1cc(C)c2c(n1)sc1c(Nc3ccc(Cl)cc3)ncnc12	0.0209 µM	> 100 µM	< 0.0161	> 100	19.3 µM	> 100 µM	< 0.01	> 100			0.0314	> 100	< 0.01 µM	> 100 µM	< 0.01	38.6	0.0154 µM	> 100 µM		
c1ccc2cc(-c3cc4ccccc4s3)ccc2c1		> 100 µM				> 100 µM				> 100 µM		> 100		> 100 µM		> 100		> 100 µM		
CC(C)(C)NNC(=O)CCn1[nH]c(=O)c(Cl)c(Cl)c1=O		> 100 µM				> 100 µM				> 100 µM		> 100		> 100 µM				> 100 µM		
O=C1CCC(Cl)=CC2CCCN12 (stereo not given)						> 100 µM				> 100 µM		> 100		> 100 µM				> 100 µM		
CC1(C)COC(C2(C)C(=O)C=C(c3ccccc3)c3ccccc32)=N1 (stereo not given)		> 100 µM				63.8 µM				> 100 µM		> 100		> 100 µM		> 100		> 100 µM		
CC/C=C\C[C@H](O)C/C=C1/C(=O)C(Cl)=C[C@@H]1C/C=C\CCCC(=O)OC	2.4 µM	5.83 µM	0.341	1.04	0.451 µM	1.23 µM	0.404	1.22	1.03 µM	3.51 µM	0.55	1.69	0.472 µM	1.95 µM			0.269 µM	16.7 µM	0.71	2.9
CC1(C)N=C(N)N=C(N)N1c1ccc(CCCCc2ccc(Cl)cc2S(=O)(=O)F)c(Cl)c1	0.409 µM	12.8 µM	2.64	24.3	1.65 µM	14.9 µM	0.474	16.1			0.522	2.53	0.436 µM	15.5 µM	0.271	26.2	0.073 µM	13.8 µM	0.993	11.4
CC(=O)CCn1ncc(Cl)c(Cl)c1=O		33.6 µM				36.2 µM				36.1 µM				> 100 µM		31.5		18.5 µM		
CC(C)N(C(=O)C12C3C4C1C1C4(C#N)C3C12C#N)C(C)C (stereo not given)		> 100 µM				> 100 µM				> 100 µM		> 100		> 100 µM				> 100 µM		
O=CCC1CCCCC1		> 100 µM		> 100		> 100 µM		> 100		> 100 µM		> 100		> 100 µM				> 100 µM		> 100
NC(=S)N/N=C/C(=O)O	> 100 µM	> 100 µM	> 100	> 100			> 100	> 100			> 100	> 100	72.5 µM	> 100 µM	> 100	> 100	27 µM	> 100 µM	81.6	> 100
NC(N)=N/N=C/c1c(-c2ccsc2)nc2sccn12	11.4 µM	23.6 µM	22.3	38.1			14.6	27.7	15.1 µM	29.4 µM			10.8 µM	39 µM			13.1 µM	29.9 µM	16.6	30.9
Oc1ccc(Nc2ncnc3c2sc2ncccc23)cc1	0.0389 µM	> 100 µM	0.0389	> 100	4.93 µM	> 100 µM	0.0403	> 100	0.097 µM	> 100 µM	0.0726		0.0527 µM	> 45.5 µM			0.36 µM	> 100 µM	> 100	> 100
Nc1ccc([N+](=O)[O-])cc1N=C/C=C/c1ccccc1	21.7 µM	> 100 µM	12.5	> 100	25.1 µM	> 100 µM			19.1 µM	> 100 µM	23	> 100	3.89 µM	> 100 µM	3.48	> 100	5.43 µM	> 100 µM	7.57	> 100
COc1ccc2occ(CCC(=O)O)c2c1		> 100 µM								> 100 µM		> 100		> 100 µM				> 100 µM		
CO/N=C(/C)c1cccc(Nc2cc(-n3nnc4ccccc43)nc3ccccc23)c1	15 µM	64.1 µM	63.2	> 100	16.1 µM	58 µM	14.8	39.4	27.3 µM	86.2 µM	> 100	> 100	7.18 µM	> 100 µM			15.2 µM	> 100 µM	7.55	60.2
O=C1CCC2(c3ccc(Cl)cc3)Nc3ncccc3N12 (stereo not given)		> 100 µM				> 100 µM				> 100 µM		> 100		> 100 µM				> 100 µM		
CCC12CCCN(Cc3ccccc3)C1c1c(n(C)c3ccccc13)CC2 (stereo not given)		> 253 µM				> 253 µM				> 253 µM		> 253		> 253 µM		> 253		> 253 µM		
CCC(=O)CC(=O)CCC(=O)Nc1cc(C)ccc1C		> 100 µM				> 100 µM				> 100 µM				> 100 µM		> 100		> 100 µM		
COc1cc(C(=O)N2CCN(C=O)C2=S)cc(OC)c1OC	29.3 µM	> 100 µM	25	62.4	24.3 µM	43.3 µM	15.5	30.8	31.8 µM	97.6 µM	20.2	39.4	29.4 µM	73.8 µM			30.8 µM	> 100 µM	21.5	57.9

SMILES	GI50 (SF-295 CNS)	TGI (SF-295 CNS)	GI50 (BT-549 breast) [µM]	TGI (BT-549 breast) [µM]	GI50 (MALME-3M melanoma)	TGI (MALME-3M melanoma)	GI50 (MDA-MB-435) [µM]	TGI (MDA-MB-435) [µM]	GI50 (EKVX NSCLC)	TGI (EKVX NSCLC)	GI50 (COLO 205 colon) [µM]	TGI (COLO 205 colon) [µM]	GI50 (MOLT-4 leukemia)	TGI (MOLT-4 leukemia)	GI50 (SR leukemia) [µM]	TGI (SR leukemia) [µM]	GI50 (K-562 leukemia)	TGI (K-562 leukemia)	GI50 (MDA-MB-231 breast) [µM]	TGI (MDA-MB-231 breast) [µM]
CCCCOC(=O)CNC(=O)OC/C=C/C#CC#C/C=C/COC(=O)NCC(=O)OCCCC	> 100 µM	> 100 µM			> 100 µM	> 100 µM			> 100 µM	> 100 µM	> 100	> 100	> 100 µM	> 100 µM		> 10	> 100 µM	> 100 µM		
O=c1/c(=C/c2ccccc2[N+](=O)[O-])sc2nnc(-c3ccco3)n12		55.5 µM				47.1 µM				> 100 µM		> 100		62 µM		70.9		> 100 µM		
Cc1cn2c(=O)c3ncn(C4OC(CO)C(O)C4O)c3n(C)c2n1 (stereo not given)		> 100 µM				> 100 µM				> 100 µM		> 100		> 100 µM				> 100 µM		
C#CCOc1cccc(-c2ncc3cc(NC(=O)CCl)ccc3n2)c1	3.65 µM	17 µM	1.47	3.18	1.65 µM	3.29 µM											0.561 µM	> 100 µM		
Cc1ccc(S(=O)(=O)N(C=O)N=C2CCN(Cc3ccccc3)CC2)cc1		> 100 µM				> 100 µM				> 100 µM		> 100		> 100 µM		> 100		> 100 µM		
O=C(Nc1ccn(CCO)c(=O)n1)c1ccccc1		> 100 µM				> 100 µM				> 100 µM		> 100				> 100		> 100 µM		
N.N.N.N.O=C([O-])CCl.O=C([O-])CCl.[Co+3].[O-][Cl+3]([O-])([O-])[O-]	> 100 µM	> 100 µM			> 100 µM	> 100 µM			> 100 µM	> 100 µM	> 100	> 100	> 100 µM	> 100 µM			> 100 µM	> 100 µM		
N#CN/C(N)=N/CO		> 100 µM				> 100 µM				> 100 µM		> 57.8		> 100 µM		72.4		> 100 µM		
Clc1ccc2c(c1)[nH]c1c2nc2ccccn21	> 100 µM and 15.7 µM	> 100 µM and 35.4 µM			> 100 µM and 17.5 µM	> 100 µM and 35.7 µM			51.9 µM and 21.6 µM	> 100 µM and 63.2 µM			28.4 µM and 5.44 µM	76.8 µM and 42.7 µM		> 100	23.9 µM and 3.96 µM	74.8 µM and 37.3 µM		
CC12C/C(=C\c3ccccc3)C(=O)C3C1CCCC32		> 100 µM				> 100 µM						> 100		53.1 µM		> 100		> 100 µM		
O=C(CCN(C(=O)O)S(=O)(=O)c1ccc(NC(=O)c2ccccc2)cc1)Nc1ccccc1		> 100 µM				> 100 µM				> 100 µM		> 80.2		> 85.3 µM		> 100		> 83.2 µM		
CC(C)C(CCl)NC(=O)c1cccc(C(=O)N[C@H](CCl)C(C)C)n1 (stereo in doubt)		> 100 µM				> 100 µM				> 100 µM		> 100		> 100 µM		> 100		> 100 µM		
COC(=O)C(C(=O)c1ccccc1)C(C(=O)C(=O)Nc1ccc(OC)cc1OC)C(=O)C(=O)c1ccc(C)cc1 (stereo not given)		> 100 µM				> 100 µM				> 100 µM		> 100		> 100 µM		> 100		> 100 µM		
CC(=O)OC1COC(Oc2c(C)c3c4c(c2O)[C@@H](C)CC[C@@H]4[C@@H](C)C[C@H]3C=C(C)C)C(O)C1OC(C)=O (stereo not given in full)	17.1 µM	33.2 µM	26.9	69.7	15.2 µM	32.3 µM	10.8	23.8	22.6 µM	45.5 µM	15.5	57.4	6.64 µM	25.6 µM			12.5 µM	32.8 µM	16.2	31.9
COc1cc(Nc2ncccc2C(=O)NCc2cn(Cc3cccc(Oc4ccccc4)c3)nn2)cc(OC)c1	4.06 µM	> 100 µM	7.16	> 100	5.81 µM	> 100 µM	2.23	5.43	6.33 µM	> 100 µM	4.12	> 100	4.86 µM	> 100 µM			5.05 µM	> 100 µM	5.33	> 100
CC1=C(C(=O)Nc2ccc(F)c(Cl)c2)C(c2ccccc2O)NC(=S)N1 (stereo not given)	35.4 µM	> 50 µM	19.2	49.4			32.2	> 50			> 50	> 50	17.8 µM	> 50 µM	34.8	> 50	22 µM	> 50 µM	> 50	> 50
CCOC(=O)c1cnc2c(ccc3[nH]n(C)nc32)c1=O		> 100 µM				> 100 µM				> 100 µM		> 100		> 100 µM		> 100		> 100 µM		
COC(=O)C1c2cc3c(cc2C(OC2OC(C)C(OC)C(C)(OC)C2OC)CC1(C)O)C(=O)c1c(O)cc2c(c1C3=O)OC1OC2(C)C(O)C([N+](C)(C)[O-])C1O (stereo not given)		> 42 µM		9.14		1.25 µM				4.59 µM		0.293		4.97 µM						4.74
CC(C)CCC1CC2C(=O)N(c3ccccc3)C(=O)C2c2[nH]c3ccccc3c21 (stereo not given)		2.86 µM				15.1 µM				11.6 µM		7.08		17.3 µM		23.9		10.7 µM		
CN1CC(=O)N2Cc3ccccc3-n3cccc3C2C1 (stereo not given)		> 100 µM				> 100 µM				> 100 µM		> 100								
OC(CC1SCCCS1)c1ccccc1 (stereo not given)		> 100 µM				> 100 µM				> 100 µM		> 100		> 100 µM				> 100 µM		
